US5945421A, “Dopamine D4 receptor antagonists” (Warner-Lambert Company, priority 1997, dated 1999)
Like-named read-outs stand apart in the source and are kept apart here.

Experiments:
[1] = target: T1, human recombinant dopamine D4.2 receptor (Homo sapiens, UniProt P21917, DEL265-296); test: Receptor binding assay, D4.2 dopamine receptor ([3H]spiperone competition, CHO K1 cell membranes)
T1 construct: expressed in transfected cells; host or cells: CHO K1
T1 sequence (P21917 with tags, fused parts or gaps DEL265-296): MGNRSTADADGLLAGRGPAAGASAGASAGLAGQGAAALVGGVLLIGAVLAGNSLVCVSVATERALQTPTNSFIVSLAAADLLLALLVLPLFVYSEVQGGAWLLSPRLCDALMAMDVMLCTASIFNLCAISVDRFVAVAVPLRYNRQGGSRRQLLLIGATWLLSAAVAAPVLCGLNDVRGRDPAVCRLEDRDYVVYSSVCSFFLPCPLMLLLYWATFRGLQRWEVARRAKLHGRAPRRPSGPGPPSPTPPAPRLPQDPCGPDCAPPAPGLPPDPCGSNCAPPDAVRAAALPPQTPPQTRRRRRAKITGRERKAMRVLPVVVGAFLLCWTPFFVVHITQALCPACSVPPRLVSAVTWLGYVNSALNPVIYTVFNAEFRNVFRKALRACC
Excerpt: (§1) A cell line expressing human dopamine D2 (Long form) receptors was purchased from Oregon Health Sciences University, Portland, Oreg. The D2 receptor cDNA was subcloned into an expression vector, pRc/CMV. The plasmids were transfected by electroporation into CHO K1 cells. A single stable transfectant, resistant to the antibiotic G418, was isolated and selected for use in the binding studies. For D4 binding, CHO K1 cells stably transfected to express the human recombinant dopamine D4.2 receptor subtype, as described by Shih, et al., "The expression and functional characterization of human dopamine D4.2 receptor in CHO K1 cells," Soc. Neurosci., 21(Part 1):621 (1995).
(§2) CHO K1 cells expressing either human D2 and D4.2 receptors were grown in 162 cm^2 culture flasks in F12 medium (Gibco Laboratories, Grand Island, N.Y.) supplemented with 10% fetal bovine serum (FBS, Hyclone, Logan, Utah) in an atmosphere of 5% CO2 /95% air at 37° C. Cells were grown until confluent, after which growth medium was removed and replaced with 0.02% ethylene diamine tetracetate (EDTA) in a phosphate-buffered saline solution (Sigma Chemical Co., St. Louis, Mo.) and scraped from the flasks. The cells were centrifuged at about 1000×g for 10 minutes at 40° C. and then resuspended in TEM buffer (25 mM Tris-HCL, pH 7.4, 5 mM EDTA, and 6 mM MgCl2) for D2 or the D4.2 buffer (50 mM Tris-HCl, pH 7.4, 5 mM EDTA, 1.5 mM CaCl2, 5 mM KCl, and 120 mM NaCl) and homogenized. The membranes were pelleted by centrifugation at 20,000×g at 40° C. for 20 minutes. Then the pellets were resuspended in appropriate buffer at 1 mL/flask and stored at -70° C. until used in the receptor binding assay.
(§3) After 60 minutes incubation at 25° C., the incubations were terminated by rapid filtration through Whatmann GF/B glass fibre filters (soaked for 1 hour in 0.5% polyethylenimine) on a -cell harvester, with three washes of 1 mL ice-cold buffer. Individual filter disks containing the bound ligand were placed in counting vials with 4 mL of scintillation fluid (Ready Gel, Beckman Instrument Inc., Fullerton, Calif.) and then counted in a Beckman LS-6800 liquid scintillation counter at an efficiency of 45%. Nonspecific binding was defined in presence of 1 mM of haloperidol.
(§4) Saturation and competition binding data were analyzed using an iterative nonlinear least-square curve-fitting Ligand program. In competition experiments, apparent Ki values were calculated from IC50 values by method of Cheng and Prusoff, "Relationship between the inhibition constant (Ki) and the concentration of inhibitor which causes 50% inhibition (IC50) of an enzymatic reaction," Biochem. Pharmacol., 22:3099-3108 (1973). Experimental compounds were made up as stock solutions in dimethyl sulfoxide (DMSO). […] Each observation was carried out in triplicate. To allow these calculations, Kd values were measured for the interaction of various ligands with the receptor. […]

[2] = target: human dopamine D2 (Long form) receptors (Homo sapiens, UniProt P14416); test: biochemical; format: binding; details: 0.2 nM [3H]spiperone, CHO K1 membranes, 60 min, 25° C.; apparent Ki from IC50 (Cheng-Prusoff)
Chain of human dopamine D2 (Long form) receptors (P14416 whole entry): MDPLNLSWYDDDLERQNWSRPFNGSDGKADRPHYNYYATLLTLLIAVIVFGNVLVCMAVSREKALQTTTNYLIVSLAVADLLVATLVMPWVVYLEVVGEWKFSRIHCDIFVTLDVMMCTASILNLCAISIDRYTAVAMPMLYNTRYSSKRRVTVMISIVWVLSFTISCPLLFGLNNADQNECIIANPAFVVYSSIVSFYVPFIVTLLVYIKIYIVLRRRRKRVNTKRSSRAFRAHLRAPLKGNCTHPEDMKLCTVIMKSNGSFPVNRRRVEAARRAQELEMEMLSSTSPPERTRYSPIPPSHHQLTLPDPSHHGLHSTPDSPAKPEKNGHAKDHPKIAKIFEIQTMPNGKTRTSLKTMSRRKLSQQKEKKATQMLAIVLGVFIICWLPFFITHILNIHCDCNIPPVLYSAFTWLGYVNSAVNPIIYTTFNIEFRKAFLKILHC
Excerpt: as §1, §2, §3, §4

[3] = 0.2 nM [3H]spiperone, CHO K1 membranes, 60 min, 25° C., apparent Ki from IC50 (Cheng-Prusoff), read-out: D4 Ki

SMILES | Ki [1, 3] [nM] | Ki [2] [nM] | Ki [1] [nM]
Clc1cccc(N2CCN(Cc3ccc4ccccc4n3)CC2)c1Cl [2-[4-(2,3-Dichloro-phenyl)-piperazin-1-ylmethyl]-quinoline] | 59.5 |  | 
Fc1ccc(C2=CCN(Cc3ccc4ccccc4n3)CC2)cc1 [2-[4-(4-Fluoro-phenyl)-3,6-dihydro-2H-pyridin-1-ylmethyl]-quinoline] |  | 254 | 14.4
N#Cc1ccc(N2CCN(Cc3ccc4ccccc4n3)CC2)cc1Cl [2-chloro-4-(4-quinolin-2-ylmethyl-piperazin-1-yl)-benzonitrile] |  |  | 101
c1ccc(N2CCN(Cc3cnc4ccccc4c3)CC2)cc1 [3-(4-Phenyl-piperazin-1-ylmethyl)-quinoline] | 16 | 1790 | 
Cc1ccc(N2CCN(Cc3cnc4ccccc4c3)CC2)cc1 [3-(4-p-Tolyl-piperazin-1-ylmethyl)-quinoline] | 21 | 2160 | 
Fc1ccccc1N1CCN(Cc2cnc3ccccc3c2)CC1 [3-[4-(2-Fluoro-phenyl)-piperazin-1-ylmethyl]-quinoline] | 29 | 512 | 
c1ccc(N2CCN(Cc3ccc4ncccc4c3)CC2)cc1 [6-(4-Phenyl-piperazin-1-ylmethyl)-quinoline] | 26 | 1380 | 
OCc1ccc(N2CCN(Cc3cnc4ccccc4c3)CC2)cc1Br [[2-Bromo-4-(4-quinolin-3-ylmethyl-piperazin-1-yl)-phenyl]-methanol] | 13.5 | > 5880 | 
OCc1ccc(N2CCN(Cc3cnc4ccccc4c3)CC2)cc1F [[2-Fluoro-4-(4-quinolin-3-ylmethyl-piperazin-1-yl)-phenyl]-methanol] | 8.8 | > 5880 | 
OCc1ccc(N2CCN(Cc3ccc4ccccc4n3)CC2)cc1 [[4-(4-Quinolin-2-ylmethyl-piperazin-1-yl)-phenyl]-methanol] | 139 | > 5880 | 

Further lines, with some results ahead:

Ki [1, 3] [nM] | Ki [2] [nM] | SMILES | Ki [1] [nM]
127 |  | Cc1cccc(N2CCN(Cc3ccc4ccccc4n3)CC2)c1 [2-(4-m-Tolyl-piperazin-1-ylmethyl)-quinoline] | 
1.55 | 2850 | Cc1ccc(N2CCN(Cc3ccc4ccccc4n3)CC2)cc1 [2-(4-p-Tolyl-piperazin-1-ylmethyl)-quinoline] | 
87 |  | O=Cc1ccc(N2CCN(Cc3ccc4ccccc4n3)CC2)cc1Cl [2-Chloro-4-(4-quinolin-2-ylmethyl-piperazin-1-yl)-benzaldehyde] | 
61 | > 5880 | Clc1ccc(N2CCN(Cc3ccc4ccccc4n3)CC2)cc1Cl [2-[4-(3,4-Dichloro-phenyl)-piperazin-1-ylmethyl]-quinoline] | 
13 | > 5880 | Cc1ccc(N2CCN(Cc3ccc4ccccc4n3)CC2)cc1C [2-[4-(3,4-Dimethyl-phenyl)-piperazin-1-ylmethyl]-quinoline] | 
121 |  | Clc1cc(Cl)cc(N2CCN(Cc3ccc4ccccc4n3)CC2)c1 [2-[4-(3,5-Dichloro-phenyl)-piperazin-1-ylmethyl]-quinoline] | 
46 |  | Brc1cccc(N2CCN(Cc3ccc4ccccc4n3)CC2)c1 [2-[4-(3-Bromo-phenyl)-piperazin-1-ylmethyl]-quinoline] | 
31.5 | > 5880 | COCc1ccc(N2CCN(Cc3ccc4ccccc4n3)CC2)cc1Cl [2-[4-(3-Chloro-4-methoxymethyl-phenyl)-piperazin-1-ylmethyl]-quinoline] | 
36 | > 5880 | Cc1ccc(N2CCN(Cc3ccc4ccccc4n3)CC2)cc1Cl [2-[4-(3-Chloro-4-methyl-phenyl)-piperazin-1-ylmethyl]-quinoline] | 
2.72 | > 5880 | Clc1cccc(N2CCN(Cc3ccc4ccccc4n3)CC2)c1 [2-[4-(3-Chloro-phenyl)-piperazin-1-ylmethyl]-quinoline] | 
57 | 5810 | CCCc1cccc(N2CCN(Cc3ccc4ccccc4n3)CC2)c1 [2-[4-(3-Propyl-phenyl)-piperazin-1-ylmethyl]-quinoline] | 
122 |  | FC(F)(F)c1cc(N2CCN(Cc3ccc4ccccc4n3)CC2)ccc1Cl [2-[4-(4-Chloro-3-trifluoromethyl-phenyl)-piperazin-1-ylmethyl]-quinoline] | 
101 |  | COc1ccc(N2CCN(Cc3ccc4ccccc4n3)CC2)cc1 [2-[4-(4-Methoxy-phenyl)-piperazin-1-ylmethyl]-quinoline] | 
36 | > 5880 | OCc1ccc(N2CCN(Cc3ccc4ccccc4n3)CC2)cc1Br [[2-Bromo-4-(4-quinolin-2-ylmethyl-piperazin-1-yl)-phenyl]-methanol] | 
8.27 | > 10000 | OCc1ccc(N2CCN(Cc3ccc4ccccc4n3)CC2)cc1Cl [[2-Chloro-4-(4-quinolin-2-ylmethyl-piperazin-1-yl)-phenyl]-methanol] | 
87 |  | OCc1ccc(N2CCN(Cc3ccc4ccccc4n3)CC2)cc1F [[2-Fluoro-4-(4-quinolin-2-ylmethyl-piperazin-1-yl)-phenyl]-methanol] | 
